The values below are quoted from earlier work in US9695131B2, “Substituted uracils as chymase inhibitors” (Bayer Pharma Aktiengesellschaft, priority 2013, dated 2017).

The series relates to hamsters with myocardial infarction.

Turning to `CCOc1ccccc1CC1C(=O)N(C(=O)NC(c2ccc(C)cc2)c2ccc(C)cc2)C1Oc1ccc(C(=O)O)cc1` (stereo not drawn) [BCEAB], the chymase activity result was “reduced”, the haemodynamics result is given as “improved” and the mortality entry was “reduced”.
